Source: US8765809B2, “Ester derivative and use thereof” (Ajinomoto Co., Inc., priority 2006, dated 2014)

System: auricle of hairless mouse
Experiment: Measurement of external blood circulation enhancing action: vasodilatory effect (red spots) after application to the ear
Format: in vivo, hairless mouse (HR-1, female)
Parameters: key to Vasodilatory effect for hairless mouse (red spots) / Vasodilatory effect on hairless mouse (red spots): O: clear red spots is confirmed; Δ: weak red spots is confirmed; x: no development of red spots
Settings: for Vasodilatory effect on hairless mouse (red spots) / red spots observed (note, words) / red spots almost disappeared at / weak red spots were observed at, time after application / red spots were observed at, time after application / red spots at 1 hr after application: 5 wt % (ethanol); for vasodilatory / blood circulation enhancing effect, summary in words: summary of Tables 2 to 4; for red spots at 1 hr after application: 1 hr later
Text: The compound of each Example, capsinoid derivative and capsaicin were compared for vasodilatory effect using auricle of hairless mouse. A sample was applied to the right ear of hairless mouse (HR-1, female), and a control was applied to the left ear. […]

[1] = 5 wt % (liquid paraffin) as printed, second column of Table 2
[2] = 5 wt % (liquid paraffin), first column of Table 2
[3] = application of 5 wt % in liquid paraffin

SMILES | Vasodilatory effect on hairless mouse (red spots) | Vasodilatory effect for hairless mouse (red spots) [1] | Vasodilatory effect for hairless mouse (red spots) [2] | red spots disappeared in [3] | vasodilatory / blood circulation enhancing effect, summary in words | other results
COc1cc(CNC(=O)CCCC/C=C/C(C)C)ccc1O [capsaicin, reference compound] | ∘ | ∘ | ∘ | – | – | Vasodilatory effect for hairless mouse (red spots) (0.005 wt % (ethanol)): Δ; Vasodilatory effect for hairless mouse (red spots) (0.05 wt % (ethanol)): ∘; Vasodilatory effect for hairless mouse (red spots) (0.5 wt % (ethanol)): ∘; red spots observed (note, words): Strong red spots were observed.; red spots were observed even after lapse of (application of 1 wt % in liquid paraffin): lapse of 2 hr
COc1cc(COC(=O)CCCC/C=C/C(C)C)ccc1O [capsiate, 4-hydroxy-3-methoxybenzyl (E)-8-methyl-6-nonenoate, reference compound] | ∘ | Δ | ∘ | – | – | red spots observed (note, words): Clear red spots were observed.; weak red spots were observed even after lapse of [3]: lapse of 90 min
COc1cc(CCCOC(=O)CCCCCCC(C)C)ccc1O [compound J, 3-(3-methoxy-4-hydroxyphenyl)propyl 8-methylnonanoate] | x | – | x | – | – | blood circulation enhancing effect (note, words) [3]: Application of 5 wt %: no blood
COc1cc(CCCOC(=O)CCCCCC(C)C)ccc1O [compound J-1, 3-(3-methoxy-4-hydroxyphenyl)propyl 7-methyloctanoate] | ∘ | x | Δ | spots disappeared in 1 hr | weak blood circulation enhancing effect | red spots almost disappeared at: almost disappeared at 30 min later.; weak red spots were observed at, time after application: Weak red spots were observed at 10 min
COc1cc(CCCOC(=O)CCCCC(C)C)ccc1O [compound J-2, 3-(3-methoxy-4-hydroxyphenyl)propyl 6-methylheptanoate] | ∘ | x | Δ | spots disappeared in 1 hr | weak blood circulation enhancing effect | red spots almost disappeared at: almost disappeared at 30 min later.; weak red spots were observed at, time after application: Weak red spots were observed at 10 min
COc1cc(CCCOC(=O)CCCC(C)C)ccc1O [compound J-3, 3-(3-methoxy-4-hydroxyphenyl)propyl 5-methylhexanoate] | ∘ | x | Δ | spots disappeared in 1 hr | weak blood circulation enhancing effect | red spots almost disappeared at: almost disappeared at 30 min later.; weak red spots were observed at, time after application: Weak red spots were observed at 10 min
COc1cc(CCCOC(=O)CCC(C)C)ccc1O [compound J-4, 3-(3-methoxy-4-hydroxyphenyl)propyl 4-methylpentanoate] | ∘ | x | Δ | spots disappeared in 1 hr | weak blood circulation enhancing effect | red spots almost disappeared at: almost disappeared at 30 min later.; weak red spots were observed at, time after application: Weak red spots were observed at 10 min
CCCCCC(=O)OCCCc1ccc(O)c(OC)c1 [compound J-5, 3-(3-methoxy-4-hydroxyphenyl)propyl n-hexanoate] | Δ | x | Δ | spots disappeared in 1 hr | weak blood circulation enhancing effect | red spots almost disappeared at: almost disappeared at 30 min later.; weak red spots were observed at, time after application: Weak red spots were observed at 10 min
COc1cc(CC(=O)OCCCCCCCC(C)C)ccc1O [compound K, 8-methylnonyl homovanillate] | – | – | ∘ | – | potent vasodilatory effect | weak red spots were observed even after lapse of [3]: lapse of 2 hr
COc1cc(CC(=O)OCCCCCCC(C)C)ccc1O [compound K-1, 7-methyloctyl homovanillate] | – | ∘ | ∘ | – | potent vasodilatory effect | Vasodilatory effect for hairless mouse (red spots) (0.005 wt % (ethanol)): Δ; Vasodilatory effect for hairless mouse (red spots) (0.05 wt % (ethanol)): ∘; Vasodilatory effect for hairless mouse (red spots) (0.5 wt % (ethanol)): ∘; red spots were observed even after lapse of [3]: lapse of 90 min
CC[C@H](C)CCCCCOC(=O)Cc1ccc(O)c(OC)c1 [compound K-2, (S)-(+)-6-methyloctyl homovanillate] | – | ∘ | ∘ | – | potent vasodilatory effect | Vasodilatory effect for hairless mouse (red spots) (0.005 wt % (ethanol)): Δ; Vasodilatory effect for hairless mouse (red spots) (0.05 wt % (ethanol)): ∘; Vasodilatory effect for hairless mouse (red spots) (0.5 wt % (ethanol)): ∘; red spots were observed even after lapse of [3]: lapse of 90 min
COc1cc(CC(=O)OCCCCCC(C)C)ccc1O [compound K-3, 6-methylheptyl homovanillate] | – | ∘ | ∘ | – | potent vasodilatory effect | Vasodilatory effect for hairless mouse (red spots) (0.005 wt % (ethanol)): Δ; Vasodilatory effect for hairless mouse (red spots) (0.05 wt % (ethanol)): ∘; Vasodilatory effect for hairless mouse (red spots) (0.5 wt % (ethanol)): ∘; red spots were observed even after lapse of [3]: lapse of 90 min
COc1cc(CCC(=O)OCCCCCCCC(C)C)ccc1O [compound L, 8-methylnonyl 3-(4-hydroxy-3-methoxyphenyl)propionate] | – | – | ∘ | – | potent vasodilatory effect | red spots were observed even after lapse of [3]: lapse of 90 min
COc1cc(CCC(=O)OCCCCCCC(C)C)ccc1O [compound L-1, 7-methyloctyl 3-(4-hydroxy-3-methoxyphenyl)propionate] | ∘ | Δ | ∘ | spots disappeared in 1 hr | potent vasodilatory effect | red spots were observed at, time after application: Red spots were observed at 5 min; red spots at 1 hr after application: thin red spots remained. L-4 showed
COc1cc(CCC(=O)OCCCCCC(C)C)ccc1O [compound L-2, 6-methylheptyl 3-(4-hydroxy-3-methoxyphenyl)propionate] | ∘ | Δ | ∘ | spots disappeared in 1 hr | potent vasodilatory effect | red spots were observed at, time after application: Red spots were observed at 5 min; red spots at 1 hr after application: thin red spots remained. L-4 showed
COc1cc(CCC(=O)OCCCCC(C)C)ccc1O [compound L-3, 5-methylhexyl 3-(4-hydroxy-3-methoxyphenyl)propionate] | ∘ | Δ | ∘ | spots disappeared in 1 hr | potent vasodilatory effect | red spots were observed at, time after application: Red spots were observed at 5 min; red spots at 1 hr after application: thin red spots remained. L-4 showed
CC[C@H](C)CCCCCOC(=O)CCc1ccc(O)c(OC)c1 [compound L-4, (S)-(+)-6-methyloctyl 3-(4-hydroxy-3-methoxyphenyl)propionate] | ∘ | ∘ | ∘ | – | potent vasodilatory effect | red spots were observed at, time after application: Red spots were observed at 5 min; red spots at 1 hr after application: strong red spots after 1 hr.; weak red spots were observed even after lapse of [3]: lapse of 1 hr
COc1cc(/C=C/C(=O)OCCCCCCCC(C)C)ccc1O [compound Q-1, 8-methylnonyl ferulate] | x | – | x | – | – | blood circulation enhancing effect (note, words) [3]: Application of 5 wt %: no blood
COc1cc(/C=C/C(=O)OCCCCCCC(C)C)ccc1O [compound Q-2, 7-methyloctyl ferulate] | x | – | x | – | – | blood circulation enhancing effect (note, words) [3]: Application of 5 wt %: no blood
COc1cc(/C=C/C(=O)OCCCCCC(C)C)ccc1O [compound Q-3, 6-methylheptyl ferulate] | x | – | x | – | – | blood circulation enhancing effect (note, words) [3]: Application of 5 wt %: no blood
COc1cc(COC(=O)CCCCCCC(C)C)ccc1O [dihydrocapsiate, 4-hydroxy-3-methoxybenzyl 8-methylnonanoate, reference compound] | – | Δ | ∘ | – | – | weak red spots were observed even after lapse of [3]: lapse of 90 min
COc1cc(COC(=O)CCCCCC(C)C)ccc1O [nordihydrocapsiate, 4-hydroxy-3-methoxybenzyl 7-methyl-octanoate, reference compound] | – | Δ | ∘ | – | – | weak red spots were observed even after lapse of [3]: lapse of 90 min
